Experimental data published in patent US20240158394A1, “NEK7 INHIBITORS” (Halia Therapeutics, Inc., priority 2022, published 2024).

Biological target: full-length recombinant human NEK7 (Homo sapiens (Human), UniProt Q8TDX7)
Assay: NEK7 Enzymatic Assay
Format: biochemical
Conditions: casein substrate, [33P]-ATP, 2 hours at room temperature
Experimental: Casein substrate (from bovine milk, hydrolyzed and partially dephosphorylated mixture of α, β and κ caseins, obtained from Sigma Aldrich, catalogue #C4765, diluted in distilled water to a final concentration of 1 mg/mL) and full-length recombinant human NEK7 (expressed by baculovirus in Sf9 insect cells using a N-terminal GST tag, obtained from SignalChem, catalogue #N09-10G, 0.1 μg/μL) were mixed in assay buffer (20 mM HEPES pH 7.5, 10 mM MgCl2, 1 mM EGTA, 0.02% Brij35, 0.02 mg/mL BSA, 0.1 mM Na3VO4, 2 mM DTT, 1% DMSO). Compounds of interest (serial 3-fold dilution in DMSO from 10 μM to 0.5 nM) or vehicle (1% DMSO) were dispensed into the kinase reaction mixture by Acoustic technology (Echo550; nanoliter range). After incubation at room temperature for 20 minutes, the kinase reaction was initiated by addition of [^33P]-ATP (specific activity 10 μCi/μL) and the mixture was incubated at room temperature for 2 hours. The reaction was then stopped by spotting the reaction mixture on strips of phosphocellulose P81 paper. Following washing, the radioactivity of the P81 paper was measured and kinase activity data were expressed as the percent remaining kinase activity in test samples compared to vehicle reactions. IC50 values and curve fits were obtained using Prism (GraphPad Software).

full-length recombinant human NEK7, sequence (Q8TDX7 whole entry): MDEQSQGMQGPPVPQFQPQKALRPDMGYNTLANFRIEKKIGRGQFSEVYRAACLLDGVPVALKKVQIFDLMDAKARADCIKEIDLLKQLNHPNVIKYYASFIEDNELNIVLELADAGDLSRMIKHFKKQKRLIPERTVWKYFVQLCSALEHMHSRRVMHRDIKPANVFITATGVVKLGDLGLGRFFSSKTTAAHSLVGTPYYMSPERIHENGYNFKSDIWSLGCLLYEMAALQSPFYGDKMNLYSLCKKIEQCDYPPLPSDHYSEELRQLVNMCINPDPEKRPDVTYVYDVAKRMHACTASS

Cn1cc(-c2ccc(NC(=O)Nc3cc(C4(C(F)(F)F)CC4)on3)c3nccn23)c2c(N)ncnc21 [Example I-126, 1-(5-(4-amino-7-methyl-7H-pyrrolo[2,3-d]pyrimidin-5-yl)imidazo[1,2-a]pyridin-8-yl)-3-(5-(1-(trifluoromethyl)-cyclopropyl)isoxazol-3-yl)urea]
IC50: < 200 nM

CC(C)c1cc(NC(=O)Nc2ccc(-c3cn(C4CC4)c4ncnc(N)c34)n3ccnc23)no1 [Example I-26, 1-(5-(4-amino-7-cyclopropyl-7H-pyrrolo[2,3-d]pyrimidin-5-yl)imidazo[1,2-a]pyridin-8-yl)-3-(5-isopropylisoxazol-3-yl)urea]
IC50: 200 to 500 nM

CN1CCN(Cc2ccc(NC(=O)Nc3ccc(-c4cn(CCO)c5ncnc(N)c45)n4ccnc34)cc2C(F)(F)F)CC1 [Example I-130, 1-(5-(4-amino-7-(2-hydroxy-ethyl)-7H-pyrrolo[2,3-d]pyr-imidin-5-yl)imidazo[1,2-a]-pyridin-8-yl)-3-(4-((4-meth-ylpiperazin-1-yl)methyl)-3-(trifluoromethyl)phenyl)urea]
IC50: < 200 nM

Nc1ncnc2c1c(-c1cnc(NC(=O)Nc3cc(C4(C(F)(F)F)CC4)on3)c3nccn13)cn2C1CC1 [Example I-50, 1-(5-(4-amino-7-cyclopropyl-7H-pyrrolo[2,3-d]pyrimidin-5-yl)imidazo[1,2-a]pyrazin-8-yl)-3-(5-(1-(trifluoromethyl)-cyclopropyl)isoxazol-3-yl)urea]
IC50: > 2000 nM

Nc1ncnc2c1c(-c1ccc(NC(=O)Nc3cc(C4(C(F)(F)F)CC4)on3)c3nccn13)cn2C1CC(O)C1 (stereo not drawn) [Example I-87, 1-(5-(4-amino-7-(3-hydroxy-cyclobutyl)-7H-pyrrolo[2,3-d]pyrimidin-5-yl)imidazo[1,2-a]pyridin-8-yl)-3-(5-(1-(trifluoromethyl)cyclopropyl)-isoxazol-3-yl)urea]
IC50: < 200 nM

CN1CCC(Oc2ccc(NC(=O)Nc3ccc(-c4cn(C5CC5)c5ncnc(N)c45)c4c3OCC4)cc2C(F)(F)F)CC1 [Example I-55, 1-(4-(4-amino-7-cyclopropyl-7H-pyrrolo[2,3-d]pyrimidin-5-yl)-2,3-dihydrobenzofuran-7-yl)-3-(4-((1-methylpiperidin-4-yl)oxy)-3-(trifluorometh-yl)phenyl)urea]
IC50: 200 to 500 nM

Nc1ncnc2c1c(-c1ccc(NC(=O)Nc3ccc(CN4CCN(CCO)CC4)c(C(F)(F)F)c3)c3nccn13)cn2C1CC1 [Example I-39, 1-(5-(4-amino-7-cyclopropyl-7H-pyrrolo[2,3-d]pyrimidin-5-yl)imidazo[1,2-a]pyridin-8-yl)-3-(4-((4-(2-hydroxyeth-yl)piperazin-1-yl)methyl)-3-(trifluoromethyl)phenyl)urea]
IC50: < 200 nM

CC(C)(C)c1cc(NC(=O)Nc2ccc(-c3cn(C4CC4)c4ncnc(N)c34)n3ccnc23)no1 [Example I-27, 1-(5-(4-amino-7-cyclopropyl-7H-pyrrolo[2,3-d]pyrimidin-5-yl)imidazo[1,2-a]pyridin-8-yl)-3-(5-(tert-butyl)isoxazol-3-yl)urea]
IC50: < 200 nM

Cc1ccc(-n2nc(C(C)(C)C)cc2NC(=O)Nc2ccc(-c3cn(C4CC4)c4ncnc(N)c34)n3ccnc23)cc1 [Example I-12, 1-(5-(4-amino-7-cyclopropyl-7H-pyrrolo[2,3-d]pyrimidin-5-yl)imidazo[1,2-a]pyridin-8-yl)-3-(3-(tert-butyl)-1-(p-tolyl)-1H-pyrazol-5-yl)urea]
IC50: 200 to 500 nM

CN1CCN(Cc2ccc(NC(=O)Nc3ccc(-c4cn(C5CCC5)c5ncnc(N)c45)n4ccnc34)cc2C(F)(F)F)CC1 [Example I-129, 1-(5-(4-amino-7-cyclobutyl-7H-pyrrolo[2,3-d]pyrimidin-5-yl)imidazo[1,2-a]pyridin-8-yl)-3-(4-((4-methylpiperazin-1-yl)methyl)-3-(trifluorometh-yl)phenyl)urea]
IC50: < 200 nM

CC(C)n1cc(-c2ccc(NC(=O)Nc3ccc(CN4CCN(C)CC4)c(C(F)(F)F)c3)c3nccn23)c2c(N)ncnc21 [Example I-128, 1-(5-(4-amino-7-isopropyl-7H-pyrrolo[2,3-d]pyrimidin-5-yl)imidazo[1,2-a]pyridin-8-yl)-3-(4-((4-methylpiperazin-1-yl)methyl)-3-(trifluorometh-yl)phenyl)urea]
IC50: < 200 nM

CC1Cc2c(-c3cn(C4CC4)c4ncnc(N)c34)ccc(NC(=O)Nc3ccc(OC4CCN(C)CC4)c(C(F)(F)F)c3)c2O1 (stereo not drawn) [Example I-58, 1-(4-(4-amino-7-cyclopropyl-7H-pyrrolo[2,3-d]pyrimidin-5-yl)-2-methyl-2,3-dihydro-benzofuran-7-yl)-3-(4-((1-methylpiperidin-4-yl)oxy)-3-(trifluoromethyl)phenyl)urea]
IC50: > 2000 nM

CN1CCN(Cc2ccc(NC(=O)Nc3ccc(-c4cn(C5CC5)c5ncnc(N)c45)c4nonc34)cc2C(F)(F)F)CC1 [Example I-78, 1-(7-(4-amino-7-cyclopropyl-7H-pyrrolo[2,3-d]pyrimidin-5-yl)benzo[c][1,2,5]oxadiazol-4-yl)-3-(4-((4-methylpiperazin-1-yl)methyl)-3-(trifluorometh-yl)phenyl)urea]
IC50: < 200 nM

CC1(C)Cc2c(-c3cn(C4CCC4)c4ncnc(N)c34)ccc(NC(=O)Nc3cc(C4(C(F)(F)F)CC4)on3)c2O1 [Example I-122, 1-(4-(4-amino-7-cyclobutyl-7H-pyrrolo[2,3-d]pyrimidin-5-yl)-2,2-dimethyl-2,3-dihydrobenzofuran-7-yl)-3-(5-(1-(trifluoromethyl)cyclo-propyl)isoxazol-3-yl)urea]
IC50: 500 to 2000 nM

CC1(c2cc(NC(=O)Nc3ccc(-c4cn(C5CC5)c5ncnc(N)c45)n4ccnc34)on2)CCC1 [Example I-19, 1-(5-(4-amino-7-cyclopropyl-7H-pyrrolo[2,3-d]pyrimidin-5-yl)imidazo[1,2-a]pyridin-8-yl)-3-(3-(1-methylcyclobutyl)-isoxazol-5-yl)urea]
IC50: 200 to 500 nM

Nc1ncnc2c1c(-c1ccc(NC(=O)Nc3cc(C4(C(F)(F)F)CC4)on3)c3ocnc13)cn2C1CC1 [Example I-71, 1-(4-(4-amino-7-cyclopropyl-7H-pyrrolo[2,3-d]pyrimidin-5-yl)benzo[d]oxazol-7-yl)-3-(5-(1-(trifluoromethyl)cyclo-propyl)isoxazol-3-yl)urea]
IC50: 500 to 2000 nM

CC1Cc2c(-c3cn(C4CC4)c4ncnc(N)c34)ccc(NC(=O)Nc3cc(C4(C(F)(F)F)CC4)on3)c2O1 (stereo not drawn) [Example I-56, 1-(4-(4-amino-7-cyclopropyl-7H-pyrrolo[2,3-d]pyrimidin-5-yl)-2-methyl-2,3-dihydro-benzofuran-7-yl)-3-(5-(1-(trifluoromethyl)cyclopropyl)-isoxazol-3-yl)urea]
IC50: 500 to 2000 nM

CCN1CCN(Cc2ccc(NC(=O)Nc3ccc(-c4cn(C5CC5)c5ncnc(N)c45)n4ccnc34)cc2C(F)(F)F)CC1 [Example I-35, 1-(5-(4-amino-7-cyclopropyl-7H-pyrrolo[2,3-d]pyrimidin-5-yl)imidazo[1,2-a]pyridin-8-yl)-3-(4-((4-ethylpiperazin-1-yl)methyl)-3-(trifluorometh-yl)phenyl)urea]
IC50: < 200 nM

CCN1CCC(Oc2ccc(NC(=O)Nc3ccc(-c4cn(C5CC5)c5ncnc(N)c45)n4ccnc34)cc2C(F)(F)F)CC1 [Example I-38, 1-(5-(4-amino-7-cyclopropyl-7H-pyrrolo[2,3-d]pyrimidin-5-yl)imidazo[1,2-a]pyridin-8-yl)-3-(4-((1-ethylpiperidin-4-yl)oxy)-3-(trifluoromethyl)-phenyl)urea]
IC50: < 200 nM

Nc1ncnc2c1c(-c1ccc(NC(=O)Nc3cc(C4(C(F)(F)F)CC4)on3)c3nccn13)cn2CCO [Example I-85, 1-(5-(4-amino-7-(2-hydroxy-ethyl)-7H-pyrrolo[2,3-d]pyr-imidin-5-yl)imidazo[1,2-a]-pyridin-8-yl)-3-(5-(1-(tri-fluoromethyl)cyclopropyl)-isoxazol-3-yl)urea]
IC50: < 200 nM

Nc1ncnc2c1c(-c1ccc(NC(=O)Nc3cc(C4CC4)on3)c3nccn13)cn2C1CC1 [Example I-120, 1-(5-(4-amino-7-cyclopropyl-7H-pyrrolo[2,3-d]pyrimidin-5-yl)imidazo[1,2-a]pyridin-8-yl)-3-(5-cyclopropylisoxazol-3-yl)urea]
IC50: < 200 nM

Nc1ncnc2c1c(-c1ccc(NC(=O)Nc3cc(C4(C(F)(F)F)CC4)on3)c3nccn13)cn2-c1cccnc1 [Example I-91, 1-(5-(4-amino-7-(pyridin-3-yl)-7H-pyrrolo[2,3-d]pyrimidin-5-yl)imidazo[1,2-a]pyridin-8-yl)-3-(5-(1-(trifluoromethyl)-cyclopropyl)isoxazol-3-yl)urea]
IC50: < 200 nM

CCN1CCC(Oc2ccc(NC(=O)Nc3ccc(-c4cn(C5CC5)c5ncnc(N)c45)c4c3OC(C)C4)cc2C(F)(F)F)CC1 (stereo not drawn) [Example I-121, 1-(4-(4-amino-7-cyclopropyl-7H-pyrrolo[2,3-d]pyrimidin-5-yl)-2-methyl-2,3-dihydro-benzofuran-7-yl)-3-(4-((1-ethylpiperidin-4-yl)oxy)-3-(trifluoromethyl)phenyl)urea]
IC50: > 2000 nM

Nc1ncnc2c1c(-c1ccc(NC(=O)Nc3cc(C4(C(F)(F)F)CC4)no3)c3cnccc13)cn2C1CC1 [Example I-7, 1-(5-(4-amino-7-cyclopropyl-7H-pyrrolo[2,3-d]pyrimidin-5-yl)isoquinolin-8-yl)-3-(3-(1-(trifluoromethyl)cyclopropyl)-isoxazol-5-yl)urea]
IC50: 500 to 2000 nM
